Reference: US8580288B2, “Agricultural or horticultural fungicide composition and its use for controlling plant pathogens” (Ishihara Sangyo Kaisha, Ltd, priority 2009, dated 2013)
Like-named read-outs stand apart in the source and are kept apart here.

Key:
Pythium aristosporum = test: Inhibition test of mycelial growth against Pythium aristosporum; format: cell-based; conditions: 48 h, PSA, 2 days, 20° C., read-out: Inhibition Rate of Mycelial Growth against Pythium aristosporum
Protocol: (§1) Pythium aristosporum was precultured. And the obtained hyphae (4 mm in diameter) was transplanted on potato sucrose agar medium (PSA) including an agent at a predetermined concentration, and then cultured for two days at room temperature of 20° C., followed by measuring a diameter of the mycelial colony to obtain an inhibition rate of mycelial growth. In addition, a theoretical value of the inhibition rate was calculated using Colby's formula and listed in parentheses of Table 1.

Pythium aphanidermatum = test: Inhibition test of mycelial growth against Pythium aphanidermatum; format: cell-based; conditions: read-out: Inhibition Rate of Mycelial Growth against Pythium aphanidermatum
Protocol: [Worded in the source for another organism; this organism is reported under the same test.] as §1, with “growth. The inhibition rate of mycelial growth was obtained by measuring a diameter of mycelial colony in the same manner as Test Example 1.” for “growth.”, “2.” for “1.”

[1] = Cyazofamid 0.1 ppm alone (Folpet 0 ppm)
[2] = Cyazofamid 1 ppm alone (Folpet 0 ppm)
[3] = Cyazofamid 10 ppm alone (Folpet 0 ppm)
[4] = Cyazofamid 100 ppm alone (Folpet 0 ppm)
[5] = Folpet 0.1 ppm alone (Cyazofamid 0 ppm)
[6] = Folpet 1 ppm alone (Cyazofamid 0 ppm)
[7] = Folpet 10 ppm alone (Cyazofamid 0 ppm)
[8] = Folpet 100 ppm alone (Cyazofamid 0 ppm)

Row | SMILES | inhibition at 0.1 ppm (Pythium aristosporum; [1]) [%] | inhibition at 1 ppm (Pythium aristosporum; [2]) [%] | inhibition at 10 ppm (Pythium aristosporum; [3]) [%] | inhibition at 100 ppm (Pythium aristosporum; [4]) [%] | inhibition at 0.1 ppm (Pythium aphanidermatum; [1]) [%] | inhibition at 1 ppm (Pythium aphanidermatum; [2]) [%] | inhibition at 10 ppm (Pythium aphanidermatum; [3]) [%] | inhibition at 100 ppm (Pythium aphanidermatum; [4]) [%] | inhibition at 0.1 ppm (Pythium aristosporum; [5]) [%] | inhibition at 1 ppm (Pythium aristosporum; [6]) [%] | inhibition at 10 ppm (Pythium aristosporum; [7]) [%] | inhibition at 100 ppm (Pythium aristosporum; [8]) [%] | inhibition at 0.1 ppm (Pythium aphanidermatum; [5]) [%] | inhibition at 1 ppm (Pythium aphanidermatum; [6]) [%] | inhibition at 10 ppm (Pythium aphanidermatum; [7]) [%] | inhibition at 100 ppm (Pythium aphanidermatum; [8]) [%]
1 | Cc1ccc(-c2c(Cl)nc(C#N)n2S(=O)(=O)N(C)C)cc1 [Cyazofamid, 4-chloro-2-cyano-1-dimethylsulfamoyl-5-(4-methylphenyl)imidazole] | 17 | 38 | 38 | 41 | 54 | 52 | 60 | 80 |  |  |  |  |  |  |  | 
2 | O=C1c2ccccc2C(=O)N1SC(Cl)(Cl)Cl [Folpet, N-(trichloromethanesulphenyl)phthalimide] |  |  |  |  |  |  |  |  | 3 | 3 | 45 | 90 | 2 | 0 | 62 | 80
